Measured values taken from US20240368150A1 (Hoffmann-La Roche Inc., priority 2021, published 2024).
Read-outs that look alike come from different tables or passages of the source.

Legend:
primary human T-cells [1] = experiment: Proliferation assay after 5 days (CellTiter-Glo, CD3 stimulation; PBS counter screen); type: cell-based; conditions: CD3 stimulation; for Emax: read-out: Emax proliferation (% activation); for EC50: primary human T-cells, CellTiter-Glo after 5 days, EC50 of fitted sigmoidal curve, read-out: Tcell Proliferation CD3 EC50
Procedure, shortened: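 Proliferation is measured 5 days post-treatment as ATP-dependent luminescence. Flags mark compounds that activated unstimulated cells or harmed viability.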

primary human T-cells [2] = system: primary human T-cells
MV-3 cells = experiment: T-cell - TCB - MV3 killing assay (MCSP-TCB, RFP object count by Incucyte); type: cell-based, human; conditions: 5 d; for Emax: normalized: MCSP-TCB only = neutral control, 20 μM reference compound A1 = 100%, read-out: MSCP TCB killing MV-3 cells 5 d Emax; for EC50: primary human T-cells + MCSP-TCB, MV-3 RFP cells, read-out: MSCP TCB killing MV-3 cells 5 d EC50
[3] = Homo sapiens, T-cell, 120 h, 5 days, normalized to reference compound A1 as stimulator control = 100%, DMSO neutral control

Row | Structure (SMILES) | Emax (primary human T-cells [1]; [3]) | EC50 (primary human T-cells [1]; Homo sapiens, T-cell, 120 h) | EC50 (primary human T-cells [2]) | Emax (MV-3 cells; Homo sapiens, MV-3, 120 h) | EC50 (MV-3 cells; Homo sapiens, MV-3, 120 h) | EC50 (MV-3 cells) | Emax proliferation (% activation) (primary human T-cells [1]; 5 days, normalized to reference compound A1 as stimulator control = 100%, DMSO neutral control) | EC50 (primary human T-cells [1])
1 | CC(C)(C)c1nc(-c2cc3c(cc2F)S(=O)(=O)C[C@H](N)C(=O)N3Cc2ccc(Cl)cc2)no1 [Example 289, (3R)-3-amino-7-(5-tert-butyl-1,2,4-oxadiazol-3-yl)-5-[(4-chlorophenyl)methyl]-8-fluoro-1,1-dioxo-2,3-dihydro-1λ^6,5-benzothiazepin-4-one] | 124% | 187 nM | 158 nM | 97% | 120 nM | – | – | –
2 | CN1CC(c2nc(-c3cc4c(cc3F)S(=O)(=O)C[C@H](N)C(=O)N4Cc3ccc(Cl)cc3)no2)CC(F)(F)C1 (stereo partly drawn) [Example 323, (3R)-3-amino-5-[(4-chlorophenyl)methyl]-7-[5-(5,5-difluoro-1-methyl-3-piperidyl)-1,2,4-oxadiazol-3-yl]-8-fluoro-1,1-dioxo-2,3-dihydro-1λ^6,5-benzothiazepin-4-one] | 109% | 229 nM | 403 nM | 100% | – | 90 nM | – | –
3 | N[C@H]1CS(=O)(=O)c2ccc(-c3nnc(N4CCOC(F)(F)C4)o3)cc2N(Cc2ccc(Cl)cc2)C1=O [Example 391, (3R)-3-amino-5-[(4-chlorophenyl)methyl]-7-[5-(2,2-difluoromorpholin-4-yl)-1,3,4-oxadiazol-2-yl]-1,1-dioxo-2,3-dihydro-1λ^6,5-benzothiazepin-4-one] | 157% | 207 nM | 284 nM | 100% | 70 nM | – | – | –
4 | CN(CC(F)(F)F)c1nnc(-c2ccc3c(c2)N(Cc2ccc(Cl)cc2)C(=O)[C@@H](N)CS3(=O)=O)o1 [Example 392, (3R)-3-amino-5-[(4-chlorophenyl)methyl]-7-[5-[methyl(2,2,2-trifluoroethyl)amino]-1,3,4-oxadiazol-2-yl]-1,1-dioxo-2,3-dihydro-1λ^6,5-benzothiazepin-4-one] | 96% | 948 nM | 568 nM | 92% | – | 210 nM | – | –
5 | N[C@H]1CS(=O)(=O)c2ccc(-c3nnc(NC4CC(F)(F)C4)o3)cc2N(Cc2ccc(Cl)cc2)C1=O [Example 397, (3R)-3-amino-5-[(4-chlorophenyl)methyl]-7-[5-[(3,3-difluorocyclobutyl)amino]-1,3,4-oxadiazol-2-yl]-1,1-dioxo-2,3-dihydro-1λ^6,5-benzothiazepin-4-one] | 82% | 2190 nM | 649 nM | 92% | – | 1850 nM | – | –
6 | N[C@H]1CS(=O)(=O)c2ccc(-c3nnc(NC4CCCC(F)(F)C4)o3)cc2N(Cc2ccc(Cl)cc2)C1=O (stereo partly drawn) [Example 401, (3R)-3-amino-5-[(4-chlorophenyl)methyl]-7-[5-[(3,3-difluorocyclohexyl)amino]-1,3,4-oxadiazol-2-yl]-1,1-dioxo-2,3-dihydro-1λ^6,5-benzothiazepin-4-one] | 69% | 1130 nM | 446 nM | 92% | – | 1540 nM | – | –
7 | CC(C)(C)c1nnc(-c2ccc3c(c2)N(Cc2ccc(C(C)(C)C#N)cc2)C(=O)[C@@H](N)CS3(=O)=O)o1 [Example 437, 2-[4-[[(3R)-3-amino-7-(5-tert-butyl-1,3,4-oxadiazol-2-yl)-1,1,4-trioxo-2,3-dihydro-1λ^6,5-benzothiazepin-5-yl]methyl]phenyl]-2-methyl-propanenitrile] | 112% | 698 nM | 1400 nM | 88% | 340 nM | – | – | –
8 | CN1CC(c2nnc(-c3cc4c(cc3F)S(=O)(=O)C[C@H](N)C(=O)N4Cc3ccc(Cl)cc3)o2)CC(F)(F)C1 (stereo partly drawn) [Example 451, (3R)-3-amino-5-[(4-chlorophenyl)methyl]-7-[5-(5,5-difluoro-1-methyl-3-piperidyl)-1,3,4-oxadiazol-2-yl]-8-fluoro-1,1-dioxo-2,3-dihydro-1λ^6,5-benzothiazepin-4-one] | – | – | 153 nM | 88% | – | 160 nM | 200 % activation | 82.1 nM
9 | N[C@H]1CS(=O)(=O)c2cc(F)c(-c3nnc(N4CCOCC4)o3)cc2N(Cc2ccc(Cl)cc2)C1=O [Example 454, (3R)-3-amino-5-[(4-chlorophenyl)methyl]-8-fluoro-7-(5-morpholino-1,3,4-oxadiazol-2-yl)-1,1-dioxo-2,3-dihydro-1λ^6,5-benzothiazepin-4-one] | 129% | 309 nM | 97.7 nM | 100% | – | 70 nM | – | –
10 | N[C@H]1CS(=O)(=O)c2cc(F)c(-c3nnc(NC4CCCC4)o3)cc2N(Cc2ccc(Cl)cc2)C1=O [Example 455, (3R)-3-amino-5-[(4-chlorophenyl)methyl]-7-[5-(cyclopentylamino)-1,3,4-oxadiazol-2-yl]-8-fluoro-1,1-dioxo-2,3-dihydro-1λ^6,5-benzothiazepin-4-one] | 115% | 339 nM | 225 nM | 91% | – | 370 nM | – | –
11 | N[C@H]1CS(=O)(=O)c2cc(F)c(-c3nnc(NC4CCC(F)(F)C4)o3)cc2N(Cc2ccc(Cl)cc2)C1=O (stereo partly drawn) [Example 456, (3R)-3-amino-5-[(4-chlorophenyl)methyl]-7-[5-[(3,3-difluorocyclopentyl)amino]-1,3,4-oxadiazol-2-yl]-8-fluoro-1,1-dioxo-2,3-dihydro-1λ^6,5-benzothiazepin-4-one] | 99% | 1260 nM | 607 nM | 94% | – | 770 nM | – | –
12 | N[C@H]1CS(=O)(=O)c2cc(F)c(-c3nnc(NC4CCC(F)(F)CC4)o3)cc2N(Cc2ccc(Cl)cc2)C1=O [Example 458, (3R)-3-amino-5-[(4-chlorophenyl)methyl]-7-[5-[(4,4-difluorocyclohexyl)amino]-1,3,4-oxadiazol-2-yl]-8-fluoro-1,1-dioxo-2,3-dihydro-1λ^6,5-benzothiazepin-4-one] | 116% | 491 nM | 543 nM | 95% | – | 590 nM | – | –
13 | CC1(Nc2nnc(-c3cc4c(cc3F)S(=O)(=O)C[C@H](N)C(=O)N4Cc3ccc(Cl)cc3)o2)CC(F)(F)C1 [Example 461, (3R)-3-amino-5-[(4-chlorophenyl)methyl]-7-[5-[(3,3-difluoro-1-methyl-cyclobutyl)amino]-1,3,4-oxadiazol-2-yl]-8-fluoro-1,1-dioxo-2,3-dihydro-1λ^6,5-benzothiazepin-4-one] | 106% | 395 nM | 455 nM | 91% | – | 310 nM | – | –
14 | N[C@H]1CS(=O)(=O)c2cc(F)c(-c3nnc(NC4CC(F)(F)C4)o3)cc2N(Cc2ccc(Cl)cc2)C1=O [Example 462, (3R)-3-amino-5-[(4-chlorophenyl)methyl]-7-[5-[(3,3-difluorocyclobutyl)amino]-1,3,4-oxadiazol-2-yl]-8-fluoro-1,1-dioxo-2,3-dihydro-1λ^6,5-benzothiazepin-4-one] | 121% | 562 nM | 986 nM | 100% | – | 350 nM | – | –
15 | N[C@H]1CS(=O)(=O)c2cc(F)c(-c3nnc(NC4CCCC(F)(F)C4)o3)cc2N(Cc2ccc(Cl)cc2)C1=O (stereo partly drawn) [Example 463, (3R)-3-amino-5-[(4-chlorophenyl)methyl]-7-[5-[(3,3-difluorocyclohexyl)amino]-1,3,4-oxadiazol-2-yl]-8-fluoro-1,1-dioxo-2,3-dihydro-λ^6,5-benzothiazepin-4-one] | 104% | 519 nM | 577 nM | 91% | – | 540 nM | – | –
16 | CC(C)Nc1nnc(-c2cc3c(cc2F)S(=O)(=O)C[C@H](N)C(=O)N3Cc2ccc(Cl)cc2)o1 [Example 464, (3R)-3-amino-5-[(4-chlorophenyl)methyl]-8-fluoro-7-[5-(isopropylamino)-1,3,4-oxadiazol-2-yl]-1,1-dioxo-2,3-dihydro-1λ^6,5-benzothiazepin-4-one] | 111% | 1040 nM | 1130 nM | 89% | – | 460 nM | – | –
17 | CC(C)(C)Nc1nnc(-c2cc3c(cc2F)S(=O)(=O)C[C@H](N)C(=O)N3Cc2ccc(Cl)cc2)o1 [Example 488, (3R)-3-amino-7-[5-(tert-butylamino)-1,3,4-oxadiazol-2-yl]-5-[(4-chlorophenyl)methyl]-8-fluoro-1,1-dioxo-2,3-dihydro-1λ^6,5-benzothiazepin-4-one] | 105% | 351 nM | 254 nM | 93% | – | 300 nM | – | –
18 | CCc1nnn(-c2cc3c(cc2F)S(=O)(=O)C[C@H](N)C(=O)N3Cc2ccc(Cl)cc2)n1 [Example 509, (3R)-3-amino-5-[(4-chlorophenyl)methyl]-7-(5-ethyltetrazol-2-yl)-8-fluoro-1,1-dioxo-2,3-dihydro-1λ^6,5-benzothiazepin-4-one] | 122% | 158 nM | 290 nM | 94% | – | 190 nM | – | –
